What was measured:
Kir6.2ΔC36 channels = target: T1, Kir6.2ΔC36 channels (Rattus norvegicus, UniProt P70673); assay: Inside-out patch recording of truncated Kir6.2 channels expressed in COS7 cells; format: biochemical; conditions: SNAP 1 mM in the presence of 1 mM [ATP]i; n = 6
T1 construct: A truncated form of Kir6.2 lacking the last 36 amino acids at the C-terminus; expressed in transfected cells; host or cells: COS7 cells, pcDNA3.1(-) Kir6.2 alone, GFP cDNA co-transfected as a separate reporter
T1 sequence (P70673 1-354 limits assumed): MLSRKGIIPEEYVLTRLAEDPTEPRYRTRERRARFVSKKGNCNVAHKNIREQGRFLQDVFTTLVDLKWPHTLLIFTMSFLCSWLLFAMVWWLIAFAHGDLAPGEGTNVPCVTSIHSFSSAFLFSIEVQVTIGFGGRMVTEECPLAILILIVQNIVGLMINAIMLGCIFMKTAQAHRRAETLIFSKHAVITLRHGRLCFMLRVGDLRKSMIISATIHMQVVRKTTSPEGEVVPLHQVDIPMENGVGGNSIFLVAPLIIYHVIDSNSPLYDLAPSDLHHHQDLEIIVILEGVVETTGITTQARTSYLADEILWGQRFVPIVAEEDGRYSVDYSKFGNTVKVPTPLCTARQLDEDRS
Protocol: KATP channel-deficient COS7 cells were plated at a density of 3 × 10^5/dish (35 mm in diameter) and cultured in Dulbecco's modified Eagle's medium supplemented with 10% fetal calf serum. Rat Kir6.2 (GenBank X97041) and rat SUR1 (GenBank X97279) cDNAs were used for expression study. A truncated form of Kir6.2 lacking the last 36 amino acids at the C-terminus was obtained by polymerase chain reaction amplification. Polymerase chain reaction products were cloned into the pCR3.1 vector by using the TA cloning system (Invitrogen Corp., Carlsbad, CA, USA) and then cloned into the pcDNA3.1 (-) vector (Invitrogen Corp.) for mammalian expression. […]
We recorded current passing through single channels in inside-out or cell-attached patch configurations. […]
(§1) We recorded single channel currents at room temperature (20–25°C) using an Axon CNS Multiclamp 700B amplifier, digitized them using an analog-to-digital converter (Axon CNS DigiData 1440A; Axon Instruments, Foster, CA), and stored them into a PC. […] Channel open probability (Po) was determined from the ratios of the area under the peaks in the amplitude histograms fitted by a Gaussian distribution. We calculated channel activity as NPo (where N is the number of observed channels in the patch) from data samples of either 30 s (in inside-out recordings), or 60 s (in cell-attached recordings), in the steady state. […]

[1] = target: T2, SUR1-C717S/Kir6.2 channels (Rattus norvegicus, UniProt P70673+Q09429, C717S); assay: Inside-out patch recording of mutated channels expressed in COS7 cells; format: biochemical
T2 construct: A full-length Kir cDNA and a full-length SUR cDNA were subcloned into the mammalian expression vector; expressed in transfected cells; host or cells: COS7 cells, pcDNA3.1(-) vectors, GFP cDNA co-transfected as a separate reporter
T2 sequence (Q09429 whole entry C717S): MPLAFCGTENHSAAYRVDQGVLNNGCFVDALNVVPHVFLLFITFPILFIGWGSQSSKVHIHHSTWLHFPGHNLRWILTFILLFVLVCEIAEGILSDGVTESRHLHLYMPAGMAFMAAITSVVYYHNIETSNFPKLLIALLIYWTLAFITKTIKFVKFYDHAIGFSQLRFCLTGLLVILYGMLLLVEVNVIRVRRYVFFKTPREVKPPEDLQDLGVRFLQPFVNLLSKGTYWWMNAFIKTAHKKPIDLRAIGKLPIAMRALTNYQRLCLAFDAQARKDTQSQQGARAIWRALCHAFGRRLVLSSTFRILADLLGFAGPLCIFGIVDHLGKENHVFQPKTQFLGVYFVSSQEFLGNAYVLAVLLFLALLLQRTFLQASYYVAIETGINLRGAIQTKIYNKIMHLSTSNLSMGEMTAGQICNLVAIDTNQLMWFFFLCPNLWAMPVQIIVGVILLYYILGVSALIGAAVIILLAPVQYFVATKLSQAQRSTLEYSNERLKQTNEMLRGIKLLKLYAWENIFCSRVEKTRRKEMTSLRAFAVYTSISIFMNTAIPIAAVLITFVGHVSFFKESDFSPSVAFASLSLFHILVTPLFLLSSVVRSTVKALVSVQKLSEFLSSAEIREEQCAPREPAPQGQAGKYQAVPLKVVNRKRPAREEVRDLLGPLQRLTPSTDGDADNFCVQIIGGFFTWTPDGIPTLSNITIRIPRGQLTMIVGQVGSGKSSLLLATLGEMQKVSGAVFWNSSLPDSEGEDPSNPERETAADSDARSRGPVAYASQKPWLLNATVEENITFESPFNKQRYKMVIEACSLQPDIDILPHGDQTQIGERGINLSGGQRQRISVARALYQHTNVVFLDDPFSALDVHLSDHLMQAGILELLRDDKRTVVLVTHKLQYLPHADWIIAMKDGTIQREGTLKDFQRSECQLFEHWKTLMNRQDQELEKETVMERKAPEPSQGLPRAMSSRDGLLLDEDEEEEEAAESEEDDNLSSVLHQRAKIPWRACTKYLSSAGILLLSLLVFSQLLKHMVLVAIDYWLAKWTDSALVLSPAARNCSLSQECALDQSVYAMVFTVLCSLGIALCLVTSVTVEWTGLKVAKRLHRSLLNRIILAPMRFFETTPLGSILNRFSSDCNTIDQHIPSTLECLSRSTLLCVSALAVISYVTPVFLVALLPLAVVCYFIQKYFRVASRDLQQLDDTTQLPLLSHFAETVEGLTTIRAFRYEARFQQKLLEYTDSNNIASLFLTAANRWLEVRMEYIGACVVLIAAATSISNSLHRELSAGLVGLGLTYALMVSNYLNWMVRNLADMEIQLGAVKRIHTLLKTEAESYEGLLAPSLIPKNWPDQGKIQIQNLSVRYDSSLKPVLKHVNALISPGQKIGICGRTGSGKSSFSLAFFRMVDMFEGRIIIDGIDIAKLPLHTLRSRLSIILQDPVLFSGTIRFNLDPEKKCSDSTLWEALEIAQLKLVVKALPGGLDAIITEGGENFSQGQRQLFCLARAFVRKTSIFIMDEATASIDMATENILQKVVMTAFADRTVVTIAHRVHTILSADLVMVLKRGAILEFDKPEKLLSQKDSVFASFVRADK
T2 sequence (P70673 whole entry): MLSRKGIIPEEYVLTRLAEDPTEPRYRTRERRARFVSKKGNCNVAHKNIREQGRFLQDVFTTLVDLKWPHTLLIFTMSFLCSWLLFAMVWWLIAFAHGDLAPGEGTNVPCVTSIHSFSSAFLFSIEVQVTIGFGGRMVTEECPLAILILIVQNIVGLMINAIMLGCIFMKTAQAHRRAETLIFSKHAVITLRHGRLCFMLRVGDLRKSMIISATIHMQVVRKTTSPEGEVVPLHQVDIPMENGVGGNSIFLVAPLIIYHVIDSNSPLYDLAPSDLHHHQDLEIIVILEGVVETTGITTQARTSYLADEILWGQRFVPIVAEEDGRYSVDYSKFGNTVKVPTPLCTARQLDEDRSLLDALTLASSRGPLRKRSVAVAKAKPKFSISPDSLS
Protocol: KATP channel-deficient COS7 cells were plated at a density of 3 × 10^5/dish (35 mm in diameter) and cultured in Dulbecco's modified Eagle's medium supplemented with 10% fetal calf serum. Rat Kir6.2 (GenBank X97041) and rat SUR1 (GenBank X97279) cDNAs were used for expression study. A truncated form of Kir6.2 lacking the last 36 amino acids at the C-terminus was obtained by polymerase chain reaction amplification. Polymerase chain reaction products were cloned into the pCR3.1 vector by using the TA cloning system (Invitrogen Corp., Carlsbad, CA, USA) and then cloned into the pcDNA3.1 (-) vector (Invitrogen Corp.) for mammalian expression. Point mutation of cysteine at position 717 (C717), C806, C1378, C1446, and C1491 within SUR1 to serine (C717S, C806S, C1378S, C1446S, and C1491S) was performed by using the Site-Directed Mutagenesis system (Invitrogen Corp.). All cDNA products were sequenced by using the BigDye terminator cycle sequencing kit and an ABI PRISM 377 DNA sequencer (Applied Biosystems, Foster City, CA) to confirm the sequence. A full-length Kir cDNA and a full-length SUR cDNA were subcloned into the mammalian expression vector pcDNA3.1 (-). For electrophysiological recordings, either wild-type or mutated pcDNA3.1 (-) Kir6.2 alone (1 μg), or pcDNA3.1 (-) Kir6.2 (1 μg) plus pcDNA3.1 (-) SUR1 (3 μg) were transfected into COS7 cells with green fluorescent protein cDNA as a reporter gene by using lipofectamine and Opti-MEN 1 reagents (Life Technologies Inc., Rockville, MD) according to the manufacturer's instructions. After transfection, cells were cultured at 37°C with 95% air and 5% CO2 for 48–72 h before being subjected to electrophysiological recordings.
We recorded current passing through single channels in inside-out or cell-attached patch configurations. In cell-attached patches, both bath and pipette (extracellular) solutions were composed of the following: 140 mM KCl, 10 mM HEPES, 5.5 mM dextrose, and 1 mM EGTA. In inside-out patches, the bath (intracellular) solution contained 140 mM KCl, 1.2 mM MgCl2, 10 mM HEPES, 1.5 mM EGTA and 5.5 mM dextrose. The pipette (extracellular) solution was of the same composition as that used in cell-attached recordings. The pH of all solutions was adjusted to 7.4 with KOH. Osmolality was adjusted approximately to 300 mOsm/l by adding sucrose if necessary. We pulled patch micropipettes from borosilicate glass capillaries using a Flaming/Brown micropipette puller, model P-97 (Sutter, San Rafael, CA) and flame polished them with a microforge polisher (Narishige, Tokyo, Japan) prior to use. Their resistance ranged between 3 and 6 MΩ when filled with the internal solution, and placed into the recording solutions.
as §1, with “PC. Sampling frequency of single-channel data was 5 KHz with a low-pass filter (1 KHz). We used pClamp version 10.2 software (Axon Instruments) for data acquisition and analysis.” for “PC.”

effect on Kir6.2ΔC36 currents (Kir6.2ΔC36 channels): fails to activate
effect on recombinant channel activity ([1]; SNAP 1 mM in the presence of 1 mM [ATP]i): significantly activated
potency in activating the channel compared with the wild-type SUR1/Kir6.2 channel ([1]; SNAP, n = 8, p < 0.02 vs. wild type): significantly less potent
Substance: S-nitroso-N-acetylpenicillamine [SNAP]

— paper PMC2673211, “Nitric oxide activates ATP-sensitive potassium channels in mammalian sensory neurons: action by direct S-nitrosylation” (Molecular Pain, 2009)
